Patent US20120142667A1, “PYRIMIDINE DERIVATIVES AS ZAP-70 INHIBITORS” (priority 2009, published 2012)
Structures can show the parent of a compound that is named as a salt.

Biological target: T1, ZAP-70 (Homo sapiens, UniProt P43403)
T1 construct: endogenous in cells; host or cells: cell lysate
T1 sequence (P43403 1-619): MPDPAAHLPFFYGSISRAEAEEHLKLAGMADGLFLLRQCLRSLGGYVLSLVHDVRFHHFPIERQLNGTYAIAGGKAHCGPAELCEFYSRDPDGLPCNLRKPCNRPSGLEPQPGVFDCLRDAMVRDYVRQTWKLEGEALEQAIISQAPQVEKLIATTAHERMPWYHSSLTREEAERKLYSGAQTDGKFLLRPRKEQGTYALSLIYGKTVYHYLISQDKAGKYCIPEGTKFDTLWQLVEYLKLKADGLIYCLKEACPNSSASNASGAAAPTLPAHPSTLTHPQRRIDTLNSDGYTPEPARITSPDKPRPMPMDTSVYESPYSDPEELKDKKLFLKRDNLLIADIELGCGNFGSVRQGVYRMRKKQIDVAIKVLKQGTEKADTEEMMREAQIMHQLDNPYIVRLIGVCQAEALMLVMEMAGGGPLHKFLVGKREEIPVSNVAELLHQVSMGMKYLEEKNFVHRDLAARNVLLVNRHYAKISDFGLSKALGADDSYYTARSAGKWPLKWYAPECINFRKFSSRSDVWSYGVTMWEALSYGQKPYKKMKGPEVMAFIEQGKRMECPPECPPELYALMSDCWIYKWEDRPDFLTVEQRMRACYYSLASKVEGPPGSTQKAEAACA
Test: ZAP-70 kinobeads assay
Format: binding
Conditions: cell lysate
Protocol: The compounds of the present invention as described in the previous examples can be tested in the ZAP-70 kinobeads assay as described (EP-A 1862802 and WO-A 2007/137867). Briefly, test compounds (at various concentrations) and the affinity matrix with the immobilized aminopyrido-pyrimidine ligand 24 are added to cell lysate aliquots and allowed to bind to the proteins in the lysate sample. After the incubation time the beads with captured proteins are separated from the lysate. Bound proteins are then eluted and the presence ZAP-70 is detected and quantified using a specific antibody in a dot blot procedure and the Odyssey infrared detection system.

SMILES | IC50
CS(=O)(=O)Nc1ccccc1Nc1nc(Nc2ccccc2F)ncc1F [Example 1, N-(2-(5-fluoro-2-(2-fluorophenylamino)pyrimidin-4-ylamino)phenyl)methanesulfonamide] | 1000 to 10000 nM
CS(=O)(=O)Nc1ccccc1Nc1nc(Nc2ccccc2OC(F)F)ncc1Br [Example 6, N-(2-(5-bromo-2-(2-(difluoromethoxy)phenylamino)pyrimidin-4-ylamino)phenyl)methanesulfonamide] | 1000 to 10000 nM
COc1ccc(OC)c(Nc2ncc(Br)c(Nc3ccccc3NS(C)(=O)=O)n2)c1 [Example 7, N-(2-(5-bromo-2-(2,5-dimethoxyphenylamino)pyrimidin-4-ylamino)phenyl)methanesulfonamide] | 100 to 1000 nM
COc1ccccc1Nc1ncc(F)c(Nc2ccccc2NS(C)(=O)=O)n1 [Example 8, N-(2-(5-fluoro-2-(2-methoxyphenylamino)pyrimidin-4-ylamino)phenyl)methanesulfonamide] | 1000 to 10000 nM
COc1cccc(Nc2ncc(Br)c(Nc3ccccc3NS(C)(=O)=O)n2)c1OC [Example 9, N-(2-(5-bromo-2-(2,3-dimethoxyphenylamino)pyrimidin-4-ylamino)phenyl)methanesulfonamide] | 1000 to 10000 nM
CS(=O)(=O)Nc1ccccc1Nc1nc(Nc2cc(F)ccc2F)ncc1F [Example 10, N-(2-(2-(2,5-difluorophenylamino)-5-fluoropyrimidin-4-ylamino)phenyl)methanesulfonamide] | 1000 to 10000 nM
COc1ccc(C)c(Nc2ncc(F)c(Nc3ccccc3NS(C)(=O)=O)n2)c1 [Example 13, N-(2-(5-fluoro-2-(5-methoxy-2-methylphenylamino)pyrimidin-4-ylamino)phenyl)methanesulfonamide] | 1000 to 10000 nM
COc1ccc(Nc2ncc(F)c(Nc3ccccc3NS(C)(=O)=O)n2)c(OC)c1 [Example 14, N-(2-(2-(2,4-dimethoxyphenylamino)-5-fluoropyrimidin-4-ylamino)phenyl)methanesulfonamide] | 1000 to 10000 nM
COc1ccc(OC)c(Nc2ncc(F)c(Nc3ccccc3NS(C)(=O)=O)n2)c1 [Example 15, N-(2-(2-(2,5-dimethoxyphenylamino)-5-fluoropyrimidin-4-ylamino)phenyl)methanesulfonamide] | 1000 to 10000 nM
CS(=O)(=O)Nc1ccccc1Nc1nc(Nc2ccccc2F)ncc1Br [Example 17, N-(2-(5-bromo-2-(2-fluorophenylamino)pyrimidin-4-ylamino)phenyl)methanesulfonamide hydrochloride] | 100 to 1000 nM
CS(=O)(=O)Nc1ccccc1Nc1nc(Nc2ccccc2Cl)ncc1Br [Example 18, N-(2-(5-bromo-2-(2-chlorophenylamino)pyrimidin-4-ylamino)phenyl)methanesulfonamide hydrochloride] | 1000 to 10000 nM
CCc1ccccc1Nc1ncc(Br)c(Nc2ccccc2NS(C)(=O)=O)n1 [Example 19, N-(2-(5-bromo-2-(2-ethylphenylamino)pyrimidin-4-ylamino)phenyl)methanesulfonamide hydrochloride] | 1000 to 10000 nM
CS(=O)(=O)Nc1ccccc1Nc1nc(Nc2ccccc2O)ncc1Br [Example 20, N-(2-(5-bromo-2-(2-hydroxyphenylamino)pyrimidin-4-ylamino)phenyl)methanesulfonamide hydrochloride] | 100 to 1000 nM
COc1ccccc1Nc1ncc(Br)c(Nc2ccccc2NS(C)(=O)=O)n1 [Example 21, N-(2-(5-bromo-2-(2-methoxyphenylamino)pyrimidin-4-ylamino)phenyl)methanesulfonamide hydrochloride] | 100 to 1000 nM
COc1ccc(Nc2nc(Nc3cc(OC)ccc3OC)ncc2Cl)c(NS(C)(=O)=O)c1 [Example 22, N-(2-(5-chloro-2-(2,5-dimethoxyphenylamino)pyrimidin-4-ylamino)-5-methoxyphenyl)methanesulfonamide] | 100 to 1000 nM
COc1ccc(Nc2nc(Nc3cc(OC)ccc3OC)ncc2Br)c(NS(C)(=O)=O)c1 [Example 23, N-(2-(5-bromo-2-(2,5-dimethoxyphenylamino)pyrimidin-4-ylamino)-5-methoxyphenyl)methanesulfonamide] | 100 to 1000 nM
Cc1ccccc1Nc1ncc(Br)c(Nc2ccccc2NS(C)(=O)=O)n1 [Example 24, N-(2-(5-bromo-2-(2-methylphenylamino)pyrimidin-4-ylamino)phenyl)methanesulfonamide hydrochloride] | 100 to 1000 nM

SMILES | IC50
COc1ccc(Nc2nc(Nc3cc(OC)c(OC)cc3OC)ncc2F)c(NS(C)(=O)=O)c1 [Example 25, N-(2-(5-fluoro-2-(2,4,5-trimethoxyphenylamino)pyrimidin-4-ylamino)-5-methoxyphenyl)methanesulfonamide] | 100 to 1000 nM
COc1ccc(Nc2ncc(Br)c(Nc3ccccc3NS(C)(=O)=O)n2)c(OC)c1 [Example 26, N-(2-(5-bromo-2-(2,4-dimethoxyphenylamino)pyrimidin-4-ylamino)phenyl)methanesulfonamide] | 100 to 1000 nM
COc1ccc(Nc2nc(Nc3cc(OC)ccc3OC)ncc2F)c(NS(C)(=O)=O)c1 [Example 27, N-(2-(2-(2,5-dimethoxyphenylamino)-5-fluoropyrimidin-4-ylamino)-5-methoxyphenyl)methanesulfonamide] | 1000 to 10000 nM
COc1cc(OCCCN2CCCCC2)ccc1Nc1ncc(Br)c(Nc2ccccc2NS(C)(=O)=O)n1 [Example 28, N-(2-(5-bromo-2-(2-methoxy-4-(3-(piperidin-1-yl)propoxy)phenylamino)pyrimidin-4-ylamino)phenyl)methanesulfonamide] | ≤ 100 nM
COc1cc(OC)c(OC)cc1Nc1ncc(Br)c(Nc2ccccc2NS(C)(=O)=O)n1 [Example 31, N-(2-(5-bromo-2-(2,4,5-trimethoxyphenylamino)pyrimidin-4-ylamino)phenyl)methanesulfonamide] | 100 to 1000 nM
COc1ccc(Nc2ncc(Cl)c(Nc3ccc(OC)cc3NS(C)(=O)=O)n2)c(F)c1 [Example 33, N-(2-(5-chloro-2-(2-fluoro-4-methoxyphenylamino)pyrimidin-4-ylamino)-5-methoxyphenyl)methanesulfonamide] | 100 to 1000 nM
COc1ccc(Nc2nc(Nc3ccc(OC)cc3OC)ncc2Cl)c(NS(C)(=O)=O)c1 [Example 34, N-(2-(5-chloro-2-(2,4-dimethoxyphenylamino)pyrimidin-4-ylamino)-5-methoxyphenyl)methanesulfonamide] | 100 to 1000 nM
COc1ccc(Nc2ncc(Cl)c(Nc3ccc(OC)cc3NS(C)(=O)=O)n2)c(C)c1 [Example 35, N-(2-(5-chloro-2-(4-methoxy-2-methylphenylamino)pyrimidin-4-ylamino)-5-methoxyphenyl)methanesulfonamide] | 100 to 1000 nM
COc1ccc(Nc2nc(Nc3ccc(OC)nc3OC)ncc2Cl)c(NS(C)(=O)=O)c1 [Example 36, N-(2-(5-chloro-2-(2,6-dimethoxypyridin-3-ylamino)pyrimidin-4-ylamino)-5-methoxyphenyl)methanesulfonamide] | 100 to 1000 nM
COc1ccc(Nc2nc(Nc3cc(F)c(OC)cc3OC)ncc2Cl)c(NS(C)(=O)=O)c1 [Example 38, N-(2-(5-chloro-2-(5-fluoro-2,4-dimethoxyphenylamino)pyrimidin-4-ylamino)-5-methoxyphenyl)methanesulfonamide hydrochloride] | 100 to 1000 nM
COc1ccc(Nc2nc(Nc3cc(C)c(OC)cc3OC)ncc2Cl)c(NS(C)(=O)=O)c1 [Example 39, N-(2-(5-chloro-2-(2,4-dimethoxy-5-methylphenylamino)pyrimidin-4-ylamino)-5-methoxyphenyl)methanesulfonamide] | 100 to 1000 nM
COc1ccc(Nc2nc(Nc3cc4c(cc3OC)OCCO4)ncc2Cl)c(NS(C)(=O)=O)c1 [Example 40, N-(2-(5-chloro-2-(7-methoxy-2,3-dihydrobenzo[b][1,4]dioxin-6-ylamino)pyrimidin-4-ylamino)-5-methoxyphenyl)methanesulfonamide] | 100 to 1000 nM
COc1ccc(Nc2ncc(Cl)c(Nc3ccc(OC)cc3NS(C)(=O)=O)n2)c(O)c1 [Example 41, N-(2-(5-chloro-2-(2-hydroxy-4-methoxyphenylamino)pyrimidin-4-ylamino)-5-methoxyphenyl)methanesulfonamide] | 100 to 1000 nM
COc1ccc(Nc2nc(Nc3cc(F)ccc3OC)ncc2Cl)c(NS(C)(=O)=O)c1 [Example 42, N-(2-(5-chloro-2-(5-fluoro-2-methoxyphenylamino)pyrimidin-4-ylamino)-5-methoxyphenyl)methanesulfonamide] | 100 to 1000 nM
COc1ccc(Nc2nc(Nc3ccc(F)cc3OC)ncc2Cl)c(NS(C)(=O)=O)c1 [Example 43, N-(2-(5-chloro-2-(4-fluoro-2-methoxyphenylamino)pyrimidin-4-ylamino)-5-methoxyphenyl)methanesulfonamide] | 100 to 1000 nM
COc1ccc(Nc2nc(Nc3cccc(OC)c3OC)ncc2Cl)c(NS(C)(=O)=O)c1 [Example 44, N-(2-(5-chloro-2-(2,3-dimethoxyphenylamino)pyrimidin-4-ylamino)-5-methoxyphenyl)methanesulfonamide] | 100 to 1000 nM
